Consider 23 compounds from patent publication US4107307A, “Imidazo [1,5-d]-as-triazine-4(3H)-ones and thiones” (American Cyanamid Company, priority 1977, dated 1978).

For data set [1], the system named is spontaneous hypertensive rats. Kind of data set: Anti-hypertensive activity, mean arterial blood pressure of conscious spontaneous hypertensive rats. To be noted: second identical dose at 24th hour, vehicle controls 166. The class given is in vivo, rat (adult male spontaneous hypertensive). The method, then: These compounds have been tested pharmacologically and found to have such properties with a desirable wide spread between doses producing lowered blood pressure and toxic symptoms. In determining this effect of these compounds on hypertension, adult male, 16-20 weeks old, spontaneous hypertensive rats from Taconic Farms, Germantown, N.Y., weighing about 300 grams are used. The rats are dosed by gavage with the test compounds at the indicated dose. All doses of drug were suspended in 2% starch (2 ml./kg.). A second identical dose of the test compound is given at the 24th hour. The mean arterial blood pressure (MAP) of the conscious rats is measured directly by femoral artery puncture at the 28th hour.

Data set [2] concerns Mouse Skin Phosphodiesterase. Kind of data set: Mouse skin phosphodiesterase (PDE) inhibition test (A). It counts as biochemical, hairless mice. On the set-up: key: Active: A compound is considered active if it inhibits more than theophylline, that is, to 50% of control at 1 mM concentration of compound, or to 80% of control of 0.05 mM concentration of compound. To be noted: mouse epidermal PDE, test compound 10 ug./ml., 30° C. 15 min.

The test system of data set [3] is Monkey Lung Cyclic AMP Phosphodiesterase. Kind of data set: Monkey lung cyclic AMP phosphodiesterase inhibition test (B). It counts as biochemical, African green monkeys. To be noted: method: monkey lung PDE, 10^-6 M cyclic AMP, compound usually 1 mM or 0.1 mM, 25° C. 20 min. How it is done: The inhibition of phosphodiesterase is determined by the mouse skin and monkey lung phosphodiesterase (PDE) inhibition tests as follows:
(B) MONKEY LUNG INHIBITION
Preparation of Monkey Lung Cyclic AMP Phosphodiesterase
Lung parenchyma of African green monkeys is homogenized in a Waring blender and centrifuged at 40,000 × gravity for 20 minutes. The supernatant is brought to 70% saturation of ammonium sulfate, centrifuged and the pellet redissolved and dialysed, before aliquoting and storage at -20° C.
Assay of Monkey Lung Phosphodiesterase
Phosphodiesterase is assayed by the method of Thompson and Appleman, ibid. An assay tube contains a 0.4 ml. solution of the following: 45 mM tris-HCl buffer, pH 7.4, […], 0.1 mM dithioerythritol, 10^-6 M cyclic AMP, 0.1 uCi [^3 H]-cyclic AMP, and test compound at the desired concentration (usually 1 mM or 0.1 mM). Compounds not readily soluble in water are dissolved at 40 times the desired concentration in methanol, and diluted 20 times with water. If the compound is not dissolved at this time, it is suspended by sonication before being diluted 1:2 into the assay tube. In this case the activity of the enzyme in the presence of the compound is compared to a solvent control (2.5% methanol), although the solvent alone has negligible effect. The reaction is initiated by addition of enzyme and proceeds at 25° C. for 20 minutes. It is terminated by incubation at 100° C. for 2 minutes. The tubes are cooled to 25° C., 0.8 ug of 5'-nucleotidase (Crotolu adamantus toxin) is added to each and the tubes incubated at 25° C. for 30 minutes. A 1 milliliter suspension of Bio-Rad Labs. AGIX8 (about 0.5 ml. of settled resin) is added, the tubes centrifuged at 900 × gravity for 10 minutes and an aliquot of supernatant removed for scintillation counting. The inhibition by the test compound is calculated as: [formula] where `compound` is the cpm in the presence of compound, `control` is the cpm in the absence of compound, and `blank` is the cpm in the absence of enzyme. […] For this reason, control tubes which contained [^3 H]-AMP instead of [^3 H]-cyclic AMP are run in parallel. A correction of the apparent phosphodiesterase activity is made for the rare compound which inhibited the hydrolysis of AMP.

The nature of data set [4]: Dispersion of aerosol suspension on warming after storage. Particulars: aerosol in dichlorodifluoromethane with sorbitan trioleate. It counts as physicochemical. The method, then: The active ingredient and sorbitan trioleate are placed in a beaker and the dichlorodifluoromethane is added at -40° C. whereupon a suspension is formed. The mixture is sonified, that is, treated with a Sonifier, manufactured by the Branson Sonic Power Co. of Danbury, Conn., as model LS-75 at a current input of 9 amperes for 2 minutes. Additional cold dichlorodifluoromethane is added as necessary to keep the volume at 100 ml. The mixture is uniformly dispersed, and has increased stability resulting from the sonification. Each of six 19 ml. stainless steel containers are filled with 15 ml. of the cold mixture, then valves are inserted and sealed in place.

For the compound `Cc1nc(C)n2c(=O)[nH]ncc12` [6,8-Dimethyl-imidazo[1,5-d]-as-triazin-4(3H)-one], the “MAP 28th hour” value in data set [1] (50 mg/kg by gavage) was determined as 70 mm Hg. The “Mouse Skin Phosphodiesterase (A)” value in data set [2] is “Active”. Moreover, the “Monkey Lung Phosphodiesterase (B)” value in data set [3] is “Active”.

For `Cc1nc(C)n2c(=S)[nH]ncc12` [6,8-Dimethyl-imidazo[1,5-d]-as-triazine-4-(3H)-thione], the “MAP 28th hour” value in data set [1] (100 mg/kg by gavage) came out at 93 mm Hg. The “Mouse Skin Phosphodiesterase (A)” value in data set [2] is given as “Active”.

For `Cc1nc(Cc2ccccc2)n2c(=O)[nH]ncc12` [6-Benzyl-8-methyl-imidazo[1,5-d]-as-triazin-4(3H)-one], the “Mouse Skin Phosphodiesterase (A)” value in data set [2] is given as “Active”.

As for `Cc1nc(Cc2ccccc2)n2c(=S)[nH]ncc12` [6-Benzyl-8-methyl-imidazo[1,5-d]-as-triazine-4(3H)-thione], the “Mouse Skin Phosphodiesterase (A)” value in data set [2] is recorded as “Active”. Also, the “Monkey Lung Phosphodiesterase (B)” value in data set [3] is reported as “Active”.

Take `O=c1[nH]ncc2cnc(Cc3ccccc3)n12` [6-Benzyl-imidazo[1,5-d]-as-triazin-4(3H)-one]: the “Mouse Skin Phosphodiesterase (A)” value in data set [2] is “Active”.

For the compound `COCc1ncc2cn[nH]c(=S)n12` [6-Methoxymethyl-imidazo[1,5-d]-as-triazine-4-(3H)-thione], the “MAP 28th hour” value in data set [1] (100 mg/kg by gavage) is 100 mm Hg.

For `Cc1ncc2cn[nH]c(=O)n12` [6-Methyl-imidazo[1,5-d]-as-triazin-4(3H)-one], in data set [1] (100 mg/kg by gavage), the “MAP 28th hour” value was found to be 120 mm Hg.

With `O=c1[nH]ncc2cnc(-c3ccccc3)n12` [6-Phenyl-imidazo[1,5-d]-as-triazin-4(3H)-one], the “MAP 28th hour” value in data set [1] (100 mg/kg by gavage) worked out at 117 mm Hg. Moreover, the “Mouse Skin Phosphodiesterase (A)” value in data set [2] is given as “Active”.

For the compound `CCCc1ncc2cn[nH]c(=O)n12` [6-n-Propyl-imidazo[1,5-d]-as-triazin-4(3H)-one], the “Mouse Skin Phosphodiesterase (A)” value in data set [2] is “Active”.

`CCCc1ncc2cn[nH]c(=S)n12` [6-n-Propyl-imidazo[1,5-d]-as-triazine-4(3H)-thione]: the “MAP 28th hour” value in data set [1] (100 mg/kg by gavage) turned out to be 136 mm Hg. Further, the “Mouse Skin Phosphodiesterase (A)” value in data set [2] is “Active”. Moreover, the “Monkey Lung Phosphodiesterase (B)” value in data set [3] was “Active”.

As for `CCCOc1ccccc1-c1ncc2cn[nH]c(=O)n12` [6-o-Propoxyphenyl-imidazo[1,5-d]-as-triazine-4(3H)-one], the “Mouse Skin Phosphodiesterase (A)” value in data set [2] is given as “Active”.

`Cc1nc(C(C)(C)C)n2c(=O)[nH]ncc12` [6-tert-Butyl-8-methyl-imidazo[1,5-d]-as-triazin-4(3H)-one]: the “MAP 28th hour” value in data set [1] (100 mg/kg by gavage) was determined as 133 mm Hg. For the same compound, the “Mouse Skin Phosphodiesterase (A)” value in data set [2] is listed as “Active”. For the same compound, the “Monkey Lung Phosphodiesterase (B)” value in data set [3] was “Active”.

In the case of `CC(C)(C)c1ncc2cn[nH]c(=O)n12` [6-tert-Butyl-imidazo[1,5-d]-as-triazin-4(3H)-one], the “MAP 28th hour” value in data set [1] (100 mg/kg by gavage) is given as 135 mm Hg. The “Mouse Skin Phosphodiesterase (A)” value in data set [2] is “Active”.

Consider `O=c1[nH]ncc2c(Br)nc(-c3ccccc3)n12` [8-Bromo-6-phenyl-imidazo[1,5-d]-as-triazin-4(3H)-one], for which the “Mouse Skin Phosphodiesterase (A)” value in data set [2] is recorded as “Active”. The “Monkey Lung Phosphodiesterase (B)” value in data set [3] was “Active”.

As to `O=c1[nH]ncc2c(Cl)nc(-c3ccccc3)n12` [8-Chloro-6-phenyl-imidazo[1,5-d]-as-triazin-4(3H)-one], the “Mouse Skin Phosphodiesterase (A)” value in data set [2] is “Active”. In data set [3], the “Monkey Lung Phosphodiesterase (B)” value is recorded as “Active”.

For the compound `CCCc1nc(C)c2cn[nH]c(=O)n12` [8-Methyl-6-n-propyl-imidazo[1,5-d]-as-triazin-4(3H)-one], the “MAP 28th hour” value in data set [1] (50 mg/kg by gavage) came out at 127 mm Hg.

As for `CCCc1nc(C)c2cn[nH]c(=S)n12` [8-Methyl-6-n-propyl-imidazolo[1,5-d]-as-triazine-4(3H)-thione], the “Mouse Skin Phosphodiesterase (A)” value in data set [2] is listed as “Active”. Also, the “Monkey Lung Phosphodiesterase (B)” value in data set [3] is given as “Active”.

In the case of `Cc1nc(-c2ccccc2)n2c(=O)[nH]ncc12` [8-Methyl-6-phenyl-imidazo[1,5-d]-as-triazin-4(3H)-one], in data set [1] (100 mg/kg by gavage), the “MAP 28th hour” value was found to be 133 mm Hg. Besides, the “Mouse Skin Phosphodiesterase (A)” value in data set [2] is on record as “Active”. Also, in data set [3], the “Monkey Lung Phosphodiesterase (B)” value is “Active”.

`Cc1nc(-c2ccccc2)n2c(=S)[nH]ncc12` [8-Methyl-6-phenyl-imidazo[1,5-d]-as-triazine-4-(3H)-thione]: the “MAP 28th hour” value in data set [1] (100 mg/kg by gavage) stood at 128 mm Hg. Moreover, the “Mouse Skin Phosphodiesterase (A)” value in data set [2] was “Active”.

On to `Cc1ncn2c(=O)[nH]ncc12` [8-Methyl-imidazo[1,5-d]-as-triazin-4(3H)-one], for which the “MAP 28th hour” value in data set [1] (100 mg/kg by gavage) worked out at 91 mm Hg. Besides, the “Mouse Skin Phosphodiesterase (A)” value in data set [2] is recorded as “Active”.

For the compound `Cc1ncn2c(=S)[nH]ncc12` [8-Methyl-imidazo[1,5-d]-as-triazine-4-(3H)-thione], the “MAP 28th hour” value in data set [1] (25 mg/kg by gavage) amounted to 130 mm Hg. The “Mouse Skin Phosphodiesterase (A)” value in data set [2] is recorded as “Active”.

For `CC(C)c1nc(Cl)c2cn[nH]c(=S)n12` [8-chloro-6-isopropyl-imidazo[1,5-d]-as-triazine-4(3H)-thione], the dispersion after storage entry in data set [4] is “remains dispersed”.

As to `S=c1[nH]ncc2cncn12` [Imidazo[1,5-d]-as-triazin-4(3H)-thione, Imidazo[1,5-d]-as-triazine-4(3H)-thione], the “MAP 28th hour” value in data set [1] (100 mg/kg by gavage) was determined as 123 mm Hg.
